Entries after “also recorded” stand apart in the source; their conditions may differ.
Assays:
DNA (CT) = experiment: Cyclic voltammetry of charge interactions with DNA; type: biochemical
Protocol: 16, 1993. […] 18, 1993. […] 30, 1993.
The structures of these complexes, as shown in the Examples, were also studied by Fourier transform-infrared spectroscopy (FTIR).
The working electrode used a smile mercury drop, the reference electrode was Ag/AgCl wire in KCl solution housed behind a porous Vycor frit and the counter electrode was Ag/AgCl wire. A reversing scan was performed from either 0 or -0.3 Volt to -1.0 Volts at 20 μA or 100 μA sensitivity and a scan rate of 100 mv/sec. Before the reductase sample was run, 9.0 ml of acetate buffer background electrolyte at pH 5.0 was purged for 8 minutes by vigorous bubbling of nitrogen. The addition of each sample was followed by two minutes of nitrogen purging.
In this example, 1.0 ml of a 5 mg/ml DNA solution was added to 250 μl of a 0.12μ Poly-RC solution. […] This scan was run from 0 to -1.0 volts at 20 μA sensitivity.
The amount of energy transferred is calculated from the shift in the voltage and current coordinates in terms of the Nernst relation. This interpretation of shifts in electro-potential curves follows the interpretations of electrochemistry literature, e.g., Maloy, "Factors Affecting the Shape of Current Potential Curves," I. Chem. Ed., 60(4):285-289 (April 1983); Rieger, Electrochemistry, Prentice Hall (1987); and Riley et al., Principles of Electroanalytical Methods, John Wiley (1987).
FIG. 6A was run from 0 to -1.0 volts at 100 μA sensitivity, while Rigure 6B was run from -0.3 to -1.0 volts at 20 μA sensitivity.
Both scans were run from -0.3 to -1.0 volts at 20 μA sensitivity. […] Biochem, 51(1 and 2):221 (August 1993).

tumors = experiment: Compassionate IND studies in tumor patients; type: in vivo, human; conditions: for liquefaction of carcinomas, adenocarcinomas, melanomas and metastases / shrinkage of carcinomas, adenocarcinomas, melanomas and metastases: patients
Description: (§1) Data reporting therapeutic effects are best presented by independent institutional protocols. Compassionate Investigational New Drug studies in humans involving administration of the novel polynucleotide reductases were begun in November of 1992 and are presently ongoing.
However, the precise route of administration, dosage and frequency of administration is individualized for each patient and can vary over a wide range depending on the particular disease state being treated, the condition of the patient and the like.

[1] = UV spectroscopy after air oxidation of the solution; type: physicochemical; conditions: ninety days of air oxidation of the solution; UV spectra
Description: There is no UV peak. FIGS. 2B and 2C show ultraviolet spectra of Pd-Lipoic Acid Complex (Poly-RC) with a concentration of 2×10^-6 M in FIG. 2B and 10^-6 M in FIG. 2C. FIGS. 2D and 2E show ultraviolet absorbance spectra of oxidized Poly RC after ninety days of air oxidation of the solution (experiment conducted Jun 11, 1993). In FIGS. 2D and 2E, the concentration is 0.00012 M. In FIG. 2D, the spectrum is ended at 400.0 nm and 0.542 A, and a reference peak is at 289.0 nm and 0.75 A. In FIG. 2E, the spectrum is ended at 550.0 nm and 0.036 A, and a reference peak is at 396.0 nm and 0.553 A. FIG. 2F illustrates the absorbance spectra of Pd-lipoic acid complexes at varying ratios of palladium to lipoic acid at a Pd concentration of 5×10^-5 M. The ratios are 1 Pd: 1 lipoic=n 1, 1 Pd: 2 lipoic=n 2, and 1 Pd: 3 lipoic=n 3. […] The reference peak of B12 is at 361.2 nm and 0.042 A and the reference peak of B12 Ac is at 358.6 nm and 0.044 A.
After ninety days of air oxidation of the Poly-RC solution, an ultraviolet spectra was again obtained on the Shimadzu UV spectrophotometer. In both instances, a 1.2×10^-4 μ solution was employed. […] FIG. 2E illustrates the visible range of the Poly RC, in which range an inflection is estimated as occurring at 396 nm. These spectra showing a shift from the fresh Poly RC solution are consistent with the view that Poly RC is a redox complex.

[2] = tested on: Brewer's yeast (Saccharomyces cerevisae) / Baker's yeast; experiment: Induction of new yeast form (cell morphology, phase microscopy); type: cell-based; conditions: Poly-R2 10^-7 M, 30 minutes at 28° C.
Protocol: Brewer's yeast (Saccharomyces cerevisae) was cultured in 2.0% malt extract and 2.0% sucrose.
The yeast was incubated for 30 minutes at 28° C. and examined under phase microscopy.

[3] = tested on: metastatic lesions to the liver; conditions: patients with metastatic lesions to the liver
Description: as §1

palladium-lipoic acid complex [Poly-RC]
charge interaction of Poly-RC with DNA (voltammetric wave) (DNA (CT); 250 μl of 0.12 M Poly-RC + 1.0 ml DNA 5 mg/ml, 0 to -1.0 volts, 20 μA): double peaked catalytic wave of Poly-RC was altered on the addition of DNA; also recorded: current had dropped and voltage had moved in the oxidative direction; also recorded: DNA oxidizes Poly-RC
liquefaction of carcinomas, adenocarcinomas, melanomas and metastases (tumors): developing non-hemorrhagic central liquefaction
shrinkage of carcinomas, adenocarcinomas, melanomas and metastases (tumors): shrinking
redox state after air oxidation [1]: in the oxidative state

thiamine salt of a palladium-lipoic acid complex [Poly-R2]
loss of lipid droplets during giantization of yeast cells ([2]; FIG. 8B): lipid droplets are lost from the cell; also recorded: lipid drops are lost from the cell
altered cell morphology of yeast cells ([2]; phase microscopy): Large fiat cells were one kind of new variety; also recorded: altered cell morphology of yeast cells
enlargement of the liver [3]: no longer palpable
serum albumen levels [3]: return to normal
magnitude of voltammetric shifts with DNA (DNA (CT); Poly-R2 compared with Poly-RC): greater magnitude
reduction of DNA (DNA (CT); cyclic voltammetry): can reduce both DNA and RNA
liquefaction of carcinomas, adenocarcinomas, melanomas and metastases (tumors): developing non-hemorrhagic central liquefaction
shrinkage of carcinomas, adenocarcinomas, melanomas and metastases (tumors): shrinking
reduction in tumor size (tumors; terminally ill patients, objective criteria): reduction in tumor size by objective criteria
relief of symptoms caused by various cancers (tumors; terminally ill patients, subjective): subjective relief of symptoms
